Experimental findings from ChEMBL document CHEMBL1201862, “PubChem BioAssay data set” (2004) are described below.

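Five concentrations, 48 hours, 96-well plates. At the GI50, growth is halved.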 Active and inactive are the calls of the source. Cut-off read from the data, not from the text of the source: active = GI50 up to about 1.1 µM and inactive = higher.

Some test systems named below: HT-29; K562; NCI-H23; NCI-H460; ACHN; SF-539; HOP-62; A498; OVCAR-5; UACC-257; NCI-H522; 786-0; SW-620; Malme-3M; CCRF-CEM; U-251.
Common to all, as to assay: growth of human tumour cells (NCI), 48 h

On to `NC(CCCNc1ccc(O)cc1)C(=O)O` (centres undefined), for which the GI50 with HT-29 was 41.7 µM (inactive); in the experiment with K562 it was 35.4 µM (inactive); with NCI-H23 it was 97.9 µM (inactive); in the experiment with NCI-H460, > 59.6 µM (inactive); in the experiment on ACHN it was 26 µM (inactive); with SF-539 it was 35.2 µM (inactive). The GI50 in the experiment on HOP-62 is > 80.2 µM (inactive); in the experiment with A498, 41.3 µM (inactive); in the experiment with OVCAR-5 it was > 100 µM (inactive); in the experiment on UACC-257, 27.8 µM (inactive); in the experiment on NCI-H522, 61.4 µM (inactive); in the experiment on 786-0 it was 17.2 µM (inactive). The GI50 in the experiment on SW-620 was 21.3 µM (inactive); in the experiment with Malme-3M it was > 56.1 µM (inactive); with CCRF-CEM, 23.4 µM (inactive); in the experiment with U-251 it was > 100 µM (inactive).

As to `COc1cc(OC)c2c(O)cc(CC(C)O)cc2c1` (centres undefined), the GI50 in the experiment with HT-29 was 92.5 µM (inactive); with K562 it was > 100 µM (inactive); in the experiment with NCI-H23 it was > 100 µM (inactive); with NCI-H460, > 100 µM (inactive); with ACHN, > 100 µM (inactive); in the experiment on SF-539, > 100 µM (inactive). In addition, the GI50 in the experiment with HOP-62, in the experiment on A498, in the experiment on OVCAR-5, with UACC-257, in the experiment on NCI-H522 and in the experiment on 786-0 was > 100 µM (inactive) in each case. Also, the GI50 in the experiment with SW-620 was > 100 µM (inactive); with Malme-3M, > 100 µM (inactive); with CCRF-CEM, > 100 µM (inactive); in the experiment on U-251, 91.4 µM (inactive).

As to `COc1cccc2c1C(=O)c1c(O)c3c(c(O)c1C2=O)C[C@@](O)(C(=O)CO)CC3OC1CC(NCCCC(OC(C)=O)OC(C)=O)C(O)C(C)O1` (some centres undefined), the GI50 is 0.000711 µM (active) with HT-29; 0.000512 µM (active) in the experiment with K562; 0.00182 µM (active) in the experiment on NCI-H23; 0.000895 µM (active) in the experiment with NCI-H460; 0.00243 µM (active) with ACHN; 0.00229 µM (active) in the experiment on SF-539. Besides, the GI50 with HOP-62 was 0.00165 µM (active); with A498, 0.0019 µM (active); with OVCAR-5, 0.00267 µM (active); in the experiment on UACC-257, 0.00269 µM (active); in the experiment with NCI-H522, 0.00129 µM (active); with 786-0, 0.00219 µM (active). The GI50 is 0.00202 µM (active) with SW-620, 0.00209 µM (active) with Malme-3M, 0.00212 µM (active) with CCRF-CEM and 0.00308 µM (active) in the experiment on U-251.

In the case of `COc1ccc(C(c2ccccc2)(c2ccc(OC)cc2)N2C(=O)NC3C(CCCCC(=O)NCCCCCCOP(OCCC#N)N(C(C)C)C(C)C)SCC32)cc1` (centres undefined), the GI50 was 14.6 µM (inactive) with HT-29; 7.62 µM (inactive) with K562; 17 µM (inactive) in the experiment on NCI-H23; 16.8 µM (inactive) with NCI-H460; 16.3 µM (inactive) in the experiment with ACHN; 14.5 µM (inactive) with SF-539. Besides, the GI50 with HOP-62 was 17.6 µM (inactive); with A498 it was 17.2 µM (inactive); in the experiment on OVCAR-5 it was > 10 µM (inactive); with UACC-257, 19.3 µM (inactive); in the experiment on NCI-H522 it was 12.7 µM (inactive); in the experiment on 786-0 it was 18.1 µM (inactive). For the same compound, the GI50 is 19.8 µM (inactive) in the experiment with SW-620, 17.8 µM (inactive) in the experiment on Malme-3M, 9.12 µM (inactive) in the experiment with CCRF-CEM and 15 µM (inactive) with U-251.

As for `NC1=NC(c2ccccc2)CC(c2cc(Cl)cc(Br)c2O)=N1` (centres undefined), the GI50 in the experiment with HT-29 is 13.5 µM (inactive); in the experiment with K562, 3 µM (inactive); with NCI-H23 it was 10.8 µM (inactive); in the experiment on NCI-H460, 12.4 µM (inactive); in the experiment with ACHN, 16.9 µM (inactive); in the experiment on SF-539 it was 12.2 µM (inactive). The GI50 is 10.4 µM (inactive) in the experiment with HOP-62; 16.4 µM (inactive) in the experiment on A498; 19.6 µM (inactive) in the experiment with OVCAR-5; 14.7 µM (inactive) in the experiment on UACC-257; 3.79 µM (inactive) with NCI-H522; 16.9 µM (inactive) in the experiment on 786-0. Besides, the GI50 in the experiment on SW-620 was 8.2 µM (inactive); with Malme-3M, 4.55 µM (inactive); with CCRF-CEM, 7.71 µM (inactive); with U-251 it was 12.5 µM (inactive).

Take `Cn1cc2ccccc2c1-c1nc(F)nc(Nc2ccc(N)cc2)n1`: the GI50 with HT-29 is 21.5 µM (inactive); with K562, 8.63 µM (inactive); with NCI-H23, 15.8 µM (inactive); in the experiment with NCI-H460 it was 13.5 µM (inactive); with ACHN, 23.3 µM (inactive); with SF-539, 15.8 µM (inactive). The GI50 in the experiment on HOP-62 was 16.6 µM (inactive); with A498 it was 6.93 µM (inactive); in the experiment on OVCAR-5 it was 26.4 µM (inactive); with UACC-257, 17.3 µM (inactive); in the experiment on NCI-H522 it was 14.4 µM (inactive); with 786-0, 22.3 µM (inactive). Moreover, the GI50 is 14.8 µM (inactive) in the experiment with SW-620, 14.4 µM (inactive) in the experiment with Malme-3M, 12.7 µM (inactive) with CCRF-CEM and 8.28 µM (inactive) with U-251.

Take `O=C(CCC(=O)Nc1ccc(Cl)c(Cl)c1)CC(=O)c1ccc2ccccc2c1`: the GI50 in the experiment with HT-29 is 93.8 µM (inactive); in the experiment on K562, 17.1 µM (inactive); in the experiment with NCI-H23, > 100 µM (inactive); in the experiment with NCI-H460, > 100 µM (inactive); in the experiment with ACHN, 39.8 µM (inactive); with SF-539, > 100 µM (inactive). Besides, the GI50 was > 100 µM (inactive) with HOP-62; > 100 µM (inactive) in the experiment with A498; > 100 µM (inactive) in the experiment with OVCAR-5; > 100 µM (inactive) with UACC-257; 89.5 µM (inactive) with NCI-H522; > 100 µM (inactive) in the experiment with 786-0. Further, the GI50 in the experiment with SW-620, in the experiment on Malme-3M, with CCRF-CEM and with U-251 was > 100 µM (inactive) in each case.

On to `N=C(NC(=N)Nc1ccc(S(=O)(=O)Nc2cnc3ccccc3n2)cc1)Nc1ccc(Br)cc1`, for which the GI50 in the experiment with HT-29, in the experiment with K562, with NCI-H23, with NCI-H460, in the experiment with ACHN and in the experiment with SF-539 was > 100 µM (inactive) in each case. For the same compound, the GI50 in the experiment on HOP-62, in the experiment with A498, with OVCAR-5, in the experiment on UACC-257, with NCI-H522 and with 786-0 was > 100 µM (inactive) in each case. Moreover, the GI50 in the experiment with SW-620, in the experiment with Malme-3M, with CCRF-CEM and with U-251 was > 100 µM (inactive) each time.

In the case of `Fc1cccc(Cl)c1C1SCc2nc3ccccc3n21` (centres undefined), the GI50 is 25.5 µM (inactive) in the experiment with HT-29; 25.8 µM (inactive) in the experiment on K562; 24.3 µM (inactive) with NCI-H23; 33 µM (inactive) with NCI-H460; 39.2 µM (inactive) with ACHN; 22.8 µM (inactive) in the experiment on SF-539. Besides, the GI50 with HOP-62 was 33.2 µM (inactive); in the experiment on A498 it was 83.2 µM (inactive); in the experiment on OVCAR-5, 31.8 µM (inactive); in the experiment on UACC-257 it was 21.9 µM (inactive); with NCI-H522 it was 17.3 µM (inactive); in the experiment with 786-0 it was 45.7 µM (inactive). Besides, the GI50 in the experiment on SW-620 is 37.2 µM (inactive); in the experiment on Malme-3M, 14.8 µM (inactive); with CCRF-CEM, 25.3 µM (inactive); in the experiment with U-251, 27.2 µM (inactive).
